The text below walks through data of patent publication EP3381898A1, “SYMMETRICAL TRIS-ARYL-AMIDE DERIVATIVES AND THEIR USE AS ANTI-HEPARANASE” (priority 2017, dated 2018).

Assay [1] relates to U87MG (human glioblastoma astrocytoma). As to the kind of experiment: SRB Cell Cytotoxicity Assay (cell proliferation, 72h). The assay is classed as cell-based. Particulars: U-87 MG, 72 h, read-out: Concentration (µM) of test compounds at which the cell growth is inhibited by 50 %. U87MG. As for the experimental part: (§1) SRB Cell Cytotoxicity Assay is an assay based upon the quantitative staining of cellular proteins by sulforhodamine B (SRB). This assay can be used for high-throughput drug screening ([…], Nature Protocol. 2006, 1, 112). Sulforhodamine B is an anionic aminoxanthene dye that forms an electrostatic complex with the basic amino acid residues of proteins under moderately acid conditions, which provides a sensitive linear response. […] Inhibition of cell proliferation was then measured by the classical colorimetric SRB Cell Cytotoxicity assay. Absorbance was measured by spectrophotometer at a wavelength of 510 nm and cell proliferation was determined as percent with respect to control cells (cells treated with the vehicle alone). EC50 values were then determined by GraphPad Prism.

Assay [2] concerns U2OS (human osteosarcoma). The description is as above. It counts as cell-based. Conditions: 72 h, read-out: Concentration (µM) of test compounds at which the cell growth is inhibited by 50 %. U2OS. As for the experimental part: as §1
Assay [3] relates to HT1080 (human fibrosarcoma). Described as above. The assay is classed as cell-based. Conditions: HT-1080, 72 h, read-out: Concentration (µM) of test compounds at which the cell growth is inhibited by 50 %. HT1080. As for the experimental part:
as §1

The target in another assay is T1, heparanase (Homo sapiens, UniProt Q9Y251).
T1 sequence (Q9Y251 158-543 limits assumed): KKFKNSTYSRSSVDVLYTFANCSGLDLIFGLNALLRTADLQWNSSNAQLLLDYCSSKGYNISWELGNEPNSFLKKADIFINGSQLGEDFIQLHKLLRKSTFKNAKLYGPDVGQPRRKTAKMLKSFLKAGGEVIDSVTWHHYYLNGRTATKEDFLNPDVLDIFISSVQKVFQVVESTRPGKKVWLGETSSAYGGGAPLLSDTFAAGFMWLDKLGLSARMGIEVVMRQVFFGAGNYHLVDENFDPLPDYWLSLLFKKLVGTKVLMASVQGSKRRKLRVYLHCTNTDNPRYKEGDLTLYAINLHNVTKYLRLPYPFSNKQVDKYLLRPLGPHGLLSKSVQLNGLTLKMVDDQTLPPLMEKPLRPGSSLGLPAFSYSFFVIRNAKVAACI
T1 sequence (Q9Y251 36-109 limits assumed): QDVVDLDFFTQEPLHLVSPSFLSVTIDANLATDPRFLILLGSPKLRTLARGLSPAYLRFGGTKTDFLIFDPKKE
As to the kind of experiment: AGA*IA assay: heparanase-catalyzed fondaparinux cleavage, colorimetric (WST-1). The assay is classed as biochemical. Background: Tetrazolium assays rely on reduction of a dye to a coloured formazan, in cell work by metabolically active cells.

Like-named read-outs stand apart in the source and are kept apart here.

On to `Cn1cc(NC(=O)c2ccc(Oc3ccc(C(=O)Nc4cc(C(=O)Nc5cccc(CC(=O)N[C@@H](Cc6ccccc6)C(=O)O)c5)n(C)c4)cc3)cc2)cc1C(=O)Nc1cccc(CC(=O)N[C@@H](Cc2ccccc2)C(=O)O)c1` [Compound 36e, (2S,2'S)-2,2'-((2,2'-(((4,4'-((4,4'-Oxybis(benzoyl))bis(azanediyl))bis(1-methyl-1H-pyrrole-2,2'-carbonyl))bis(azanediyl))bis(3,1-phenylene))bis(acetyl))bis(azanediyl))bis(3-phenylpropanoic acid)], for which the EC50 in assay [1], in assay [2] and in assay [3] was > 2.5 µM throughout. Further, the IC50 on heparanase (AGA*IA screening, read-out: anti-heparanase activity) is < 500 nM; at heparanase (Table 1, range activity classes, AGA*IA test on Fondaparinux, read-out: AGAIA assay IC50), 50 to 490 nM; at heparanase (Table 2, classes as in Table 1, read-out: AGA*IA assay) it was 50 to 490 nM.
